Reference: ChEMBL document CHEMBL3797190, “Development of 3,5-Dinitrobenzylsulfanyl-1,3,4-oxadiazoles and Thiadiazoles as Selective Antitubercular Agents Active Against Replicating and Nonreplicating Mycobacterium tuberculosis” (J Med Chem, 2016)
pIC50: −log10 of the molar value. In brackets after ≈: the same amount, converted by molar mass. Activity calls are given as the source filed them. The rule behind the calls is not given here.

Experiments:
[1] = test system: Mycobacterium tuberculosis; experiment: Antimycobacterial activity against Mycobacterium tuberculosis CNCTC My 331/88 after 14 days by microdilution method; format: functional; settings: CNCTC My 331/88, 336 h
Mycobacterium kansasii [2] = experiment: Antimycobacterial activity against Mycobacterium kansasii CNCTC My 6509/96 after 14 days by microdilution method; format: functional; settings: CNCTC My 6509/96, 336 h
[3] = test system: Mycobacterium tuberculosis; experiment: Antimycobacterial activity against Mycobacterium tuberculosis CNCTC My 331/88 after 21 days by microdilution method; format: functional; settings: CNCTC My 331/88, 504 h
Mycobacterium avium = experiment: Antimycobacterial activity against Mycobacterium avium CNCTC My 330/88 after 21 days by microdilution method; format: functional; settings: CNCTC My 330/88, 504 h
Mycobacterium kansasii [4] = experiment: Antimycobacterial activity against Mycobacterium kansasii CNCTC My 235/80 after 21 days by microdilution method; format: functional; settings: CNCTC My 235/80, 504 h
Mycobacterium kansasii [5] = experiment: Antimycobacterial activity against Mycobacterium kansasii CNCTC My 6509/96 after 21 days by microdilution method; format: functional; settings: CNCTC My 6509/96, 504 h
Mycobacterium kansasii [6] = experiment: Antimycobacterial activity against Mycobacterium kansasii CNCTC My 235/80 after 7 days by microdilution method; format: functional; settings: CNCTC My 235/80, 168 h
Mycobacterium kansasii [7] = experiment: Antimycobacterial activity against Mycobacterium kansasii CNCTC My 6509/96 after 7 days by microdilution method; format: functional; settings: CNCTC My 6509/96, 168 h
[8] = Cytotoxicity against human HuH7 cells assessed as cell viability after 24 hrs by MTS assay; format: cell-based; settings: Huh-7, 24 h
HeLa [9] = experiment: Cytotoxicity against human HeLa cells assessed as cell viability after 24 hrs by MTS assay; format: cell-based
HeLa [10] = experiment: Cytotoxicity against human HeLa cells assessed as cell viability after 48 hrs by MTS assay; format: cell-based
[11] = Cytotoxicity against MDCK2-MDR1 cells assessed as cell viability after 24 hrs by MTS assay; format: ADME, cell-based; settings: Canis lupus familiaris, MDCK-II
[12] = Cytotoxicity against human HuH7 cells assessed as cell viability at 20 uM after 48 hrs by MTS assay; format: cell-based, Huh-7; settings: read-out: Activity
[13] = Cytotoxicity against human HeLa cells assessed as cell viability at 20 uM after 24 hrs by MTS assay; format: cell-based; settings: read-out: Activity
[14] = Cytotoxicity against human HeLa cells assessed as cell viability at 20 uM after 48 hrs by MTS assay; format: cell-based; settings: read-out: Activity
[15] = Cytotoxicity against MDCK2-MDR1 cells assessed as cell viability at 20 uM after 24 hrs by MTS assay; format: ADME, cell-based, Canis lupus familiaris, MDCK-II; settings: dog, read-out: Activity
[16] = Cytotoxicity against MDCK2-MDR1 cells assessed as cell viability at 20 uM after 48 hrs by MTS assay; format: ADME, cell-based, Canis lupus familiaris, MDCK-II; settings: dog, read-out: Activity
[17] = Cytotoxicity against primary human hepatocytes assessed as cell viability at 20 uM after 48 hrs by MTS assay; format: cell-based, Hepatocyte; settings: read-out: Activity
HepG2 = experiment: Cytotoxicity against human HepG2 cells assessed as cell viability after 48 hrs by MTS assay; format: cell-based; settings: HepG2, 48 h
[18] = Cytotoxicity against human HepG2 cells assessed as cell viability at 50 uM after 48 hrs by MTS assay; format: cell-based; settings: read-out: Activity
Salmonella typhimurium [19] = experiment: Mutagenic activity in Salmonella typhimurium TA100 assessed as reverse mutation at 30 uM by Ames test; format: toxicity, organism-based; settings: salmonella enterica subsp. enterica serovar typhimurium
Salmonella typhimurium [20] = experiment: Mutagenic activity in Salmonella typhimurium TA98 assessed as reverse mutation at 30 uM by Ames test; format: toxicity, organism-based; settings: salmonella enterica subsp. enterica serovar typhimurium
[21] = Intrinsic clearance in human liver microsomes assessed per mg of protein at 3 uM preincubated for 5 mins followed by NADPH addition by HPLC analysis; format: ADME; settings: read-out: CLH
[22] = Aqueous solubility of compound in water with 0.01 to 1% DMSO at 2 to 200 uM by HPLC analysis; format: physicochemical
[23] = Aqueous solubility of compound in distilled water at 0.2 mg/ml after 24 hrs by HPLC analysis; format: physicochemical
[24] = Selectivity index, ratio of IC50 for human HepG2 cells to MIC>99 for Mycobacterium tuberculosis CNCTC My 331/88; format: toxicity, cell-based; settings: read-out: Selectivity Index
Candida albicans = experiment: Antifungal activity against Candida albicans ATCC 44859 after 24 to 48 hrs by broth microdilution method; format: functional
Candida tropicalis = experiment: Antifungal activity against Candida tropicalis 156 after 24 to 48 hrs by broth microdilution method; format: functional
Pichia kudriavzevii = experiment: Antifungal activity against Candida krusei E28 after 24 to 48 hrs by broth microdilution method; format: functional
Trichosporon asahii = experiment: Antifungal activity against Trichosporon asahii 1188 after 24 to 48 hrs by broth microdilution method; format: functional
Aspergillus fumigatus = experiment: Antifungal activity against Aspergillus fumigatus 231 after 24 to 48 hrs by broth microdilution method; format: functional
Lichtheimia corymbifera = experiment: Antifungal activity against Absidia corymbifera 272 after 24 to 48 hrs by broth microdilution method; format: functional
[25] = test system: Trichophyton mentagrophytes; experiment: Antifungal activity against Trichophyton mentagrophytes 445 after 72 to 120 hrs by broth microdilution method; format: functional
Staphylococcus aureus = experiment: Antibacterial activity against Staphylococcus aureus ATCC 6538 after 24 to 48 hrs by broth microdilution method; format: functional
Enterococcus faecalis = experiment: Antibacterial activity against Enterococcus faecalis J 14365/08 after 24 to 48 hrs by broth microdilution method; format: functional
Escherichia coli = experiment: Antibacterial activity against Escherichia coli ATCC 8739 after 24 to 48 hrs by broth microdilution method; format: functional
Klebsiella pneumoniae [26] = experiment: Antibacterial activity against Klebsiella pneumoniae D 11750/08 after 24 to 48 hrs by broth microdilution method; format: functional
Klebsiella pneumoniae [27] = experiment: Antibacterial activity against ESBL producing Klebsiella pneumoniae J 14368/08 after 24 to 48 hrs by broth microdilution method; format: functional
Pseudomonas aeruginosa = experiment: Antibacterial activity against Pseudomonas aeruginosa ATCC 9027 after 24 to 48 hrs by broth microdilution method; format: functional
[28] = test system: Mycobacterium tuberculosis; experiment: Antimycobacterial activity against non-replicating streptomycin-starved Mycobacterium tuberculosis SS18b-Lux measured at 5 mins to 6 days by luciferase assay; format: functional, organism-based
[29] = test system: Mycobacterium tuberculosis; experiment: Antimycobacterial activity against non-replicating streptomycin-starved Mycobacterium tuberculosis SS18b-Lux by resazurin reduction microplate assay; format: functional, organism-based
[30] = molecular target: Decaprenylphosphoryl-beta-D-ribose oxidase (Mycobacterium smegmatis (strain ATCC 700084 / mc(2)155)) (UniProt A0R607); experiment: Inhibition of DprE1 in mixture of Mycobacterium smegmatis MC2 155 membrane and cell envelope fractions assessed as incorporation of P[14C]RPP into [14C]-decaprenylphosphoryl arabinose up to 0.6 mM incubated for 1 hr by TLC/autoradiographic method; settings: Mycolicibacterium smegmatis MC2 155
[31] = test system: Mycobacterium tuberculosis; experiment: Antimycobacterial activity against Mycobacterium tuberculosis CNCTC My 331/88 using 1 month stored compound at room temperature in DMSO after 14 to 21 days by microdilution method; format: functional, organism-based
[32] = test system: Mycobacterium tuberculosis; experiment: Antimycobacterial activity against Mycobacterium tuberculosis H37Ra assessed as growth inhibition at 1 ug/ml preincubated for 1 hr followed by radiolabeling with [14C]-uracil, [14C]-methionine for 24 hrs; format: functional, organism-based

Sequence of Decaprenylphosphoryl-beta-D-ribose oxidase (Mycobacterium smegmatis (strain ATCC 700084 / mc(2)155)) (A0R607 whole entry): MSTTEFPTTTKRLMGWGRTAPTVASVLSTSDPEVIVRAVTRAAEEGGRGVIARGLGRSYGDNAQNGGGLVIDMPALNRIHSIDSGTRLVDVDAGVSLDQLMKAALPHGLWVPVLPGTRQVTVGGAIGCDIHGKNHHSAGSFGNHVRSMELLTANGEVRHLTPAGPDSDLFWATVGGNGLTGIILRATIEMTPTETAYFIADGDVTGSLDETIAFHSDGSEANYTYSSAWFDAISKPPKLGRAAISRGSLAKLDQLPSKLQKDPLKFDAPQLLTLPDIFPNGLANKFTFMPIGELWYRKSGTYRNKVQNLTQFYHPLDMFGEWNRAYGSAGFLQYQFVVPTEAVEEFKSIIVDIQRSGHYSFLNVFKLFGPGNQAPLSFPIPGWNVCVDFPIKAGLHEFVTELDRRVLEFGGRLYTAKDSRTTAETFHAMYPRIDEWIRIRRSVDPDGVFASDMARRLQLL

SMILES: Cc1ccc(-c2nnc(SCc3cc([N+](=O)[O-])cc([N+](=O)[O-])c3)o2)cc1
- MIC99 [1]: ≤ 0.03 µM
- MIC99 (Mycobacterium kansasii [2]): 0.06 µM (≈ 0.0223 µg/mL)
- MIC99 [3]: ≤ 0.03 µM
- MIC99 (Mycobacterium avium): 16 µM (≈ 5.96 µg/mL)
- MIC99 (Mycobacterium kansasii [4]): 0.06 µM (≈ 0.0223 µg/mL)
- MIC99 (Mycobacterium kansasii [5]): 0.125 µM (≈ 0.0465 µg/mL)
- MIC99 (Mycobacterium kansasii [6]): 0.06 µM (≈ 0.0223 µg/mL)
- MIC99 (Mycobacterium kansasii [7]): 0.06 µM (≈ 0.0223 µg/mL)
- pIC50 [8]: < 4.70
- pIC50 (HeLa [9]): < 4.70
- pIC50 (HeLa [10]): < 4.70
- pIC50 [11]: < 4.70
- viability at 48 h, 20 µM [12]: 53.1%
- viability at 24 h, 20 µM [13]: 87.2%
- viability at 48 h, 20 µM [14]: 118%
- viability at 24 h, 20 µM [15]: 98%
- viability at 48 h, 20 µM [16]: 48.5%
- viability at 48 h, 20 µM [17]: 95.1%
- pIC50 (HepG2): < 4.30
- viability at 48 h, 50 µM [18]: 95.5%
- Activity (Salmonella typhimurium [19]): Non-toxic
- Activity (Salmonella typhimurium [20]): Non-toxic
- microsomal CLint at 3 µM [21]: 86 µL/min/mg
- solubility kinetic [22]: 0.5 µM (≈ 0.186 µg/mL)
- solubility at 24 h [23]: 0.067 µM (≈ 0.0249 µg/mL)
- selectivity ratio [24]: > 500
- MIC80 (Candida albicans): > 125 µM
- MIC80 (Candida tropicalis): > 125 µM
- MIC80 (Pichia kudriavzevii): > 125 µM
- MIC80 (Trichosporon asahii): > 125 µM
- MIC50 (Aspergillus fumigatus): > 125 µM
- MIC50 (Lichtheimia corymbifera): > 125 µM
- MIC50 [25]: > 125 µM
- MIC95 (Staphylococcus aureus): > 125 µM
- MIC95 (Enterococcus faecalis): > 125 µM
- MIC95 (Escherichia coli): > 125 µM
- MIC95 (Klebsiella pneumoniae [26]): > 125 µM
- MIC95 (Klebsiella pneumoniae [27]): > 125 µM
- MIC95 (Pseudomonas aeruginosa): > 125 µM
- Activity [28]: Dose-dependent effect
- Activity [29]: Dose-dependent effect
- inhibition [30]: inactive
- Activity [31]: Active
- growth inhibition (GI) [32]: Active

SMILES: O=[N+]([O-])c1cc(CSc2nnc(-c3ccc(Cl)cc3)s2)cc([N+](=O)[O-])c1
- MIC99 [1]: 0.06 µM (≈ 0.0245 µg/mL)
- MIC99 (Mycobacterium kansasii [2]): 0.25 µM (≈ 0.102 µg/mL)
- MIC99 [3]: 0.06 µM (≈ 0.0245 µg/mL)
- MIC99 (Mycobacterium avium): 16 µM (≈ 6.54 µg/mL)
- MIC99 (Mycobacterium kansasii [4]): 0.5 µM (≈ 0.204 µg/mL)
- MIC99 (Mycobacterium kansasii [5]): 0.5 µM (≈ 0.204 µg/mL)
- MIC99 (Mycobacterium kansasii [6]): 0.125 µM (≈ 0.0511 µg/mL)
- MIC99 (Mycobacterium kansasii [7]): 0.125 µM (≈ 0.0511 µg/mL)
- pIC50 [8]: < 4.70
- pIC50 (HeLa [9]): < 4.70
- pIC50 (HeLa [10]): < 4.70
- pIC50 [11]: < 4.70
- viability at 48 h, 20 µM [12]: 43.4%
- viability at 24 h, 20 µM [13]: 92.8%
- viability at 48 h, 20 µM [14]: 108%
- viability at 24 h, 20 µM [15]: 102%
- viability at 48 h, 20 µM [16]: 91.4%
- viability at 48 h, 20 µM [17]: 102%
- pIC50 (HepG2): < 4.30
- viability at 48 h, 50 µM [18]: 98.5%
- Activity (Salmonella typhimurium [19]): Non-toxic
- Activity (Salmonella typhimurium [20]): Non-toxic
- microsomal CLint at 3 µM [21]: 29 µL/min/mg
- solubility kinetic [22]: 0.54 µM (≈ 0.221 µg/mL)
- solubility at 24 h [23]: 0.03 µM (≈ 0.0123 µg/mL)
- selectivity ratio [24]: > 500
- MIC80 (Candida albicans): > 125 µM
- MIC80 (Candida tropicalis): > 125 µM
- MIC80 (Pichia kudriavzevii): > 125 µM
- MIC80 (Trichosporon asahii): > 125 µM
- MIC50 (Aspergillus fumigatus): > 125 µM
- MIC50 (Lichtheimia corymbifera): > 125 µM
- MIC50 [25]: > 125 µM
- MIC95 (Staphylococcus aureus): > 125 µM
- MIC95 (Enterococcus faecalis): > 125 µM
- MIC95 (Escherichia coli): > 125 µM
- MIC95 (Klebsiella pneumoniae [26]): > 125 µM
- MIC95 (Klebsiella pneumoniae [27]): > 125 µM
- MIC95 (Pseudomonas aeruginosa): > 125 µM
- Activity [28]: Dose-dependent effect
- Activity [29]: Dose-dependent effect
- inhibition [30]: inactive
- Activity [31]: Active
- growth inhibition (GI) [32]: inactive
